In patent EP0306845A2, “Medicinal preparation containing certain derivatives of 6-mercaptopurine, use of these derivatives of 6-mercaptopurine, process for the preparation of the medicinal preparation and some derivatives of 6-mercaptopurine and process for their preparation” (HOECHST AKTIENGESELLSCHAFT, priority 1987, dated 1989):

System: Friend-Leukämie-Virus
Test: In vivo test in mice infected with Friend leukaemia virus (retrovirus model; spleen weight)
Set-up: species or system Maus
Conditions: for Wirkung im Vergleich zu Suramin: summary in words of the two experiments of the table
Excerpt: Da für die HIV-Infektion des Menschen kein geeignetes Infektionsmodell bei Labortieren existiert, muß bei der Prüfung von Chemotherapeutika auf Infektionen mit anderen Retroviren zurückgegriffen werden. Sowie die Hemmung der Virusreplikation in vivo aufgrund einer spezifischen Blockierung der RT (= Reverse Transkriptase)-Aktivität untersucht wird, erscheint die Wahl eines solchen Ersatzmodelles gerechtfertigt. Im vorliegenden Fall wurde die Infektion der Maus mit dem Friend-Leukämie-Virus gewählt.
Dazu wurden normale Labormäuse (NMRI = Naval Medical Research Institute) durch intravenöse Injektion mit Friend-Virus enthaltendem Mäuseserum infiziert. Bei den unbehandelten Kontrolltieren entwickelte sich als Symptom der Infektion innerhalb von zwei Wochen eine deutliche Vergrößerung von Milz und Leber. Die Behandlung erfolgte über 10 Tage, beginnend 48 Stunden nach der Infektion. Am 14. Versuchstag wurden die tiere durch Luxation der Halswirbel getötet und geöffnet. Die Milz wurde entnommen und gewogen. Als Meßparameter der therapeutischen Wirksamkeit wurde das Milzgewicht der behandelten Tiere mit dem der unbehandelten Infektionskontrolle in Relation gesetzt.
Während bei uninfizierten ausgewachsenen Labormäusen (20 - 24 g Körpergewicht) die Milz weniger als 1 % des Körpergewichtes wog, erreichte bei infizierten Tieren die Milz am Ende des Versuchs bis zu etwa 10 % des Körpergewichtes. […] Suramin ist die Verbindung der Formel: [drawing 14]

Row | Compound | Wirkung im Vergleich zu Suramin | other results
1 | 6-Mercapto-9-[1,3-bis-(isopropoxy)-propyl-2-oxymethyl]-purin [Beispiel 2] | gegenüber dem Suramin Vorteile besitzen | 
2 | 6-Mercapto-9-[(1-hydroxy-3-isopropoxy-2-propoxy)methyl]-purin [Beispiel 3] | mit Suramin vergleichbar | 
3 | OC[C@H]1O[C@@H](n2cnc3c(S)ncnc32)[C@H](O)[C@@H]1O [(1), 6-Mercapto-purin-9-D-ribosid] | gegenüber dem Suramin Vorteile besitzen | 
4 | Nc1nc(S)c2ncn([C@@H]3O[C@H](CO)[C@@H](O)[C@H]3O)c2n1 [(2), 2-Amino-6-mercaptopurin-9-D-ribosid] |  | Relat Milzgewicht in % vom Körpergewicht (Versuch 1 (Virus-Verdünnung 1:5000), NMRI mice, 10 x 1,0 mg/Maus i.p., spleen weighed on day 14): 0,5 % vom Körpergewicht
5 | Cc1ccc(C(=O)Nc2ccc(S(=O)(=O)O)c3cc(S(=O)(=O)O)cc(S(=O)(=O)O)c23)cc1NC(=O)c1cccc(NC(=O)Nc2cccc(C(=O)Nc3cc(C(=O)Nc4ccc(S(=O)(=O)O)c5cc(S(=O)(=O)O)cc(S(=O)(=O)O)c45)ccc3C)c2)c1 [Suramin, reference compound] |  | Milzwachstum (infected mice, treatment with the comparison preparation, mostly statistically significant (P 0,05)): Verringerung des Milzwachstums
